# The source made the active and inactive calls. The rule behind the calls is not given here.
# What was measured:
# Mesenteric artery [1] = assay: Potentiation of phenylepinephrine-induced contraction in endothelium-intact Sprague-Dawley rat mesenteric artery at 30 umol/L after 30 mins in presence of NG-nitro-L-arginine methyl ester; format: functional, tissue-based
# Mesenteric artery [2] = assay: Potentiation of phenylepinephrine-induced contraction in endothelium-intact Sprague-Dawley rat mesenteric artery at 30 umol/L after 30 mins in presence of NG-nitro-L-arginine; format: functional, tissue-based
# Artery [3] = assay: Change in NS 1619-induced vasorelaxation in endothelium-denuded Sprague-Dawley rat mesenteric artery at 30 umol/L; format: functional, tissue-based
# Artery [4] = assay: Attenuation of acetylcholine-induced vasorelaxation in endothelium-intact Sprague-Dawley rat mesenteric artery at 30 umol/L after 30 mins; format: functional, tissue-based
# Mesenteric artery [5] = assay: Potentiation of phenylepinephrine-induced contraction in endothelium-intact Sprague-Dawley rat mesenteric artery at 100 to 300 umol/L after 30 mins; format: functional, tissue-based
# [6] = Vasorelaxant activity in endothelium-intact Sprague-Dawley rat vascular smooth muscle at > 100 umol/L; format: functional
# Artery [7] = assay: Change in hydroxylamine-induced vasorelaxation in endothelium-denuded Sprague-Dawley rat mesenteric artery at 30 umol/L after 30 mins; format: functional, tissue-based
# Mesenteric artery [8] = assay: Potentiation of phenylepinephrine-induced contraction in endothelium-intact Sprague-Dawley rat mesenteric artery after 30 mins; format: functional
# Mesenteric artery [9] = assay: Potentiation of phenylepinephrine-induced vessel tension in endothelium-intact Sprague-Dawley rat mesenteric artery at 30 umol/L in presence of pretreated indomethacin; format: functional, tissue-based
# Mesenteric artery [10] = assay: Potentiation of phenylepinephrine-induced contraction in endothelium-denuded Sprague-Dawley rat mesenteric artery at 30 umol/L after 30 mins; format: functional, tissue-based
# Mesenteric artery [11] = assay: Potentiation of phenylepinephrine-induced contraction in endothelium-intact Sprague-Dawley rat mesenteric artery at 30 umol/L after 30 mins; format: functional, tissue-based
# Mesenteric artery [12] = assay: Enhancement of phenylepinephrine-induced contraction in endothelium-intact Sprague-Dawley rat mesenteric artery at 30 umol/L after 30 mins in presence of co-treated 1H-[1,2,4]oxadiazolo[…]quinoxalin-1-one; format: functional, tissue-based
# Artery [13] = assay: Attenuation of forskolin-induced vasorelaxation in endothelium-denuded Sprague-Dawley rat mesenteric artery at 30 umol/L; format: functional, tissue-based
# Mesenteric artery [14] = assay: Increase in phenylepinephrine-induced vessel tension in endothelium-intact Sprague-Dawley rat mesenteric artery at 30 umol/L in presence of tetraethylammonium; format: functional, tissue-based
# Artery [15] = assay: Change in sodium nitroprusside-induced vasorelaxation in endothelium-denuded Sprague-Dawley rat mesenteric artery at 30 umol/L after 30 mins; format: functional, tissue-based
smiles,measurement,setting,value
C[C@@H]1O[C@@H](O[C@@H]2[C@@H](O)[C@H](OCCc3ccc(O)c(O)c3)O[C@H](CO)[C@H]2OC(=O)/C=C/c2ccc(O)c(O)c2)[C@H](O)[C@H](O)[C@H]1O,Activity,Mesenteric artery [1],inactive
same,Activity,Mesenteric artery [2],inactive
same,Activity,Artery [3],inactive
same,Activity,Artery [4],Active
same,Activity,Mesenteric artery [5],inactive
same,Activity,[6],Active
same,Activity,Artery [7],inactive
same,Activity,Mesenteric artery [8],Dose-dependent effect
same,Activity,Mesenteric artery [9],Active
same,Activity,Mesenteric artery [10],inactive
same,Activity,Mesenteric artery [11],Active
same,Activity,Mesenteric artery [12],inactive
same,Activity,Artery [13],inactive
same,Activity,Mesenteric artery [14],inactive
same,Activity,Artery [15],inactive

# Reference: ChEMBL document CHEMBL1150112, “Enhancement of contraction of rat mesenteric artery by acteoside: role of endothelial nitric oxide” (J Nat Prod, 2002)
